From PubChem BioAssay (NCI)
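In this assay, cells in 96-well plates receive the compound at five concentrations for 48 hours. Endpoints are linearly interpolated between the surrounding concentrations. TGI: total growth inhibition.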

Experiments:
Experiment in all cases: DTP human tumour cell line panel, 48 h
786-0 renal = system: 786-0 renal
A498 renal = system: A498 renal
A549 NSCLC = system: A549 NSCLC
ACHN renal = system: ACHN renal
BT-549 breast = system: BT-549 breast
CAKI-1 renal = system: CAKI-1 renal
CCRF-CEM leukemia = system: CCRF-CEM leukemia
COLO 205 colon = system: COLO 205 colon
DU-145 prostate = system: DU-145 prostate
EKVX NSCLC = system: EKVX NSCLC
HCT-116 colon = system: HCT-116 colon
HCT-15 colon = system: HCT-15 colon
HL-60(TB) leukemia = system: HL-60(TB) leukemia
HOP-62 NSCLC = system: HOP-62 NSCLC
HOP-92 NSCLC = system: HOP-92 NSCLC
HT29 colon = system: HT29 colon
IGROV1 ovarian = system: IGROV1 ovarian
K-562 leukemia = system: K-562 leukemia
KM12 colon = system: KM12 colon
LOX IMVI melanoma = system: LOX IMVI melanoma
M14 melanoma = system: M14 melanoma
MCF7 breast = system: MCF7 breast
MDA-MB-231 breast = system: MDA-MB-231 breast
MDA-MB-435 = system: MDA-MB-435
MDA-N = system: MDA-N
MOLT-4 leukemia = system: MOLT-4 leukemia
NCI-H226 lung = system: NCI-H226 lung
NCI-H23 lung = system: NCI-H23 lung
NCI-H460 lung = system: NCI-H460 lung
NCI/ADR-RES ovarian = system: NCI/ADR-RES ovarian
OVCAR-3 ovarian = system: OVCAR-3 ovarian
OVCAR-4 ovarian = system: OVCAR-4 ovarian
OVCAR-5 ovarian = system: OVCAR-5 ovarian
OVCAR-8 ovarian = system: OVCAR-8 ovarian
PC-3 prostate = system: PC-3 prostate
RPMI-8226 leukemia = system: RPMI-8226 leukemia
RXF 393 renal = system: RXF 393 renal
SF-295 CNS = system: SF-295 CNS
SF-539 CNS = system: SF-539 CNS
SK-MEL-2 melanoma = system: SK-MEL-2 melanoma
SK-MEL-28 melanoma = system: SK-MEL-28 melanoma
SK-MEL-5 melanoma = system: SK-MEL-5 melanoma
SK-OV-3 ovarian = system: SK-OV-3 ovarian
SN12C renal = system: SN12C renal
SNB-19 CNS = system: SNB-19 CNS
SNB-75 CNS = system: SNB-75 CNS
SR leukemia = system: SR leukemia
SW-620 colon = system: SW-620 colon
T-47D breast = system: T-47D breast
TK-10 renal = system: TK-10 renal
U251 CNS = system: U251 CNS
UACC-257 melanoma = system: UACC-257 melanoma
UACC-62 melanoma = system: UACC-62 melanoma

For `O=S(=O)(O)c1cc(N=Nc2cccc3ccccc23)c(O)c2ncccc12`, the TGI (786-0 renal) was > 100 µM, the TGI (A498 renal) was > 100 µM and the TGI (A549 NSCLC) was > 100 µM. For the same compound, the TGI (ACHN renal) was > 100 µM, the TGI (BT-549 breast) was > 100 µM and the TGI (CAKI-1 renal) was > 100 µM. The TGI (CCRF-CEM leukemia) was > 100 µM, the TGI (COLO 205 colon) was > 100 µM and the TGI (DU-145 prostate) was > 100 µM. For the same compound, the TGI (EKVX NSCLC) was > 100 µM, the TGI (HCT-116 colon) was > 100 µM and the TGI (HCT-15 colon) was > 100 µM. The TGI (HL-60(TB) leukemia) was > 100 µM, the TGI (HOP-62 NSCLC) was > 100 µM and the TGI (HOP-92 NSCLC) was > 100 µM. For the same compound, the TGI (HT29 colon) was 83.5 µM, the TGI (IGROV1 ovarian) was > 100 µM and the TGI (K-562 leukemia) was > 100 µM. For the same compound, the TGI (KM12 colon) was > 100 µM, the TGI (LOX IMVI melanoma) was > 100 µM and the TGI (M14 melanoma) was > 100 µM. For the same compound, the TGI (MCF7 breast) was > 100 µM, the TGI (MDA-MB-231 breast) was > 100 µM and the TGI (MDA-MB-435) was > 100 µM. For the same compound, the TGI (MDA-N) was > 100 µM, the TGI (MOLT-4 leukemia) was > 100 µM and the TGI (NCI-H226 lung) was 85.8 µM. The TGI (NCI-H23 lung) was > 100 µM, the TGI (NCI-H460 lung) was 69.4 µM and the TGI (NCI/ADR-RES ovarian) was > 100 µM. The TGI (OVCAR-3 ovarian) was > 100 µM, the TGI (OVCAR-4 ovarian) was > 100 µM and the TGI (OVCAR-5 ovarian) was > 100 µM. For the same compound, the TGI (OVCAR-8 ovarian) was > 100 µM, the TGI (PC-3 prostate) was > 100 µM and the TGI (RPMI-8226 leukemia) was > 100 µM. For the same compound, the TGI (RXF 393 renal) was > 100 µM, the TGI (SF-295 CNS) was > 100 µM and the TGI (SF-539 CNS) was > 100 µM. The TGI (SK-MEL-2 melanoma) was > 100 µM, the TGI (SK-MEL-28 melanoma) was > 100 µM and the TGI (SK-MEL-5 melanoma) was > 100 µM. The TGI (SK-OV-3 ovarian) was > 100 µM, the TGI (SN12C renal) was > 100 µM and the TGI (SNB-19 CNS) was > 100 µM. The TGI (SNB-75 CNS) was > 100 µM, the TGI (SR leukemia) was 65.7 µM and the TGI (SW-620 colon) was > 100 µM. For the same compound, the TGI (T-47D breast) was > 100 µM, the TGI (TK-10 renal) was > 100 µM and the TGI (U251 CNS) was > 100 µM. The TGI (UACC-257 melanoma) was > 100 µM and the TGI (UACC-62 melanoma) was > 100 µM.
